In patent EP1480941B1, “UREA DERIVATIVES AS HIV ASPARTYL PROTEASE INHIBITORS” (priority 2002, dated 2003):
Where two headings read alike, the source gives them in different places.

Key:
[1] = system: laboratory viral strain NL4.3; test: Anti-viral assay in vitro (MTT assay on infected MT-4 cells); format: cell-based, HIV-1; conditions: Human immunodeficiency virus 1, MT4, 144 h, infected MT-4 cells incubated six days, average of at least two determinations
From the text: (§1) Anti-viral and cytotoxicity assays in vitro
(§2) We also use some WT clinical strains.

[2] = system: MT-4; test: Cytotoxicity assay in vitro (MTT assay, virus omitted); format: cell-based
From the text: as §1, §2

[3] = molecular target: HIV protease (Human immunodeficiency virus type 1 group M subtype B, UniProt P04585); test: Enzymatic (fluorometric FRET) assay for determining the inhibition constant (Ki); format: biochemical; conditions: EDANS/DABCYL substrate, equation of Henderson
Procedure, shortened: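 FRET assay in which protease cleaves a substrate carrying EDANS donor and DABCYL acceptor either side of the cleavage site. Initial velocities without (Vo) and with inhibitor (Vi) gave apparent Ki, corrected to Ki using substrate concentration and Km.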

[4] = cell culture IC50, same MTT assay with virus omitted, average of at least two determinations

Row | SMILES | EC50 [1] [nM] | CCIC50 [2, 4] [µM] | Ki ([3]; Ki) [nM] | Ki ([3]; read-out: Ki) [nM] | further results
1 | CC(C)CN([C@H](CO)CCCCNC(=O)N(Cc1ccc(F)cc1)Cc1ccc2c(c1)OCO2)S(=O)(=O)c1ccc(N)cc1 [Example 67, (2S) 2-N-(4-aminobenzenesulfonyl)-2-N-isobutyl-6-N-[N'-(4-fluorobenzyl)-N'-piperonylaminocarbonyl]-2,6-diaminohexanol] | 488 | 11 | – | – | –
2 | COc1cccc(CN(Cc2ccc3c(c2)OCO3)C(=O)NCCCC[C@@H](CO)N(CCC(C)C)S(=O)(=O)c2ccc(N)cc2)c1 [Example 110, (2S) 2-N-(4-aminobenzenesulfonyl)-2-N-(3-methylbutyl)-6-N-[N'-(3-methoxybenzyl)-N'-piperonylaminocarbonyl]-2,6-diaminohexanol] | 350 | – | 2.2 | – | –
3 | Cc1ccc(S(=O)(=O)N(CC(C)C)[C@H](CO)CCCCNC(=O)N(Cc2ccccc2)Cc2cccc([N+](=O)[O-])c2)cc1 [Example 60, (2S) 2-N-isobutyl-2-N-(4-methylbenzenesulfonyl)-6-N-[N'-benzyl-N'-(3-nitrobenzyl)aminocarbonyl]-2,6-diaminohexanol] | 1800 | 4.6 | – | – | –
4 | CC(C)CN([C@H](CO)CCCCNC(=O)N(Cc1ccc2c(c1)OCO2)Cc1ccc2c(c1)OCO2)S(=O)(=O)c1ccc(N)cc1 [Example 85, (2S) 2-N-(4-aminobenzenesulfonyl)-2-N-isobutyl-6-N-(N',N'-dipiperonylaminocarbonyl)-2,6-diaminohexanol] | 130 | 13.1 | – | – | –
5 | Cc1ccc(S(=O)(=O)N(CC(C)C)[C@H](CO)CCCCNC(=O)N(Cc2ccccc2)Cc2ccc([N+](=O)[O-])cc2)cc1 [Example 61, (2S) 2-N-isobutyl-2-N-(4-methylbenzenesulfonyl)-6-N-[N'-benzyl-N'-(4-nitrobenzyl)aminocarbonyl]-2,6-diaminohexanol] | 3800 | 5.1 | – | – | –
6 | Cc1ccc(S(=O)(=O)N(CC(C)C)[C@H](CO)CCCCNC(=O)N(Cc2ccccc2)Cc2ccccc2[N+](=O)[O-])cc1 [Example 59, (2S) 2-N-isobutyl-2-N-(4-methylbenzenesulfonyl)-6-N-[N'-benzyl-N'-(2-nitrobenzyl)aminocarbonyl]-2,6-diaminohexanol] | 385 | 4.6 | – | – | –
7 | CC(C)CN([C@H](CO)CCCCNC(=O)N(Cc1ccccc1)Cc1ccc2c(c1)OCO2)S(=O)(=O)c1ccc(N)cc1 [Example 82, (2S) 2-N-(4-aminobenzenesulfonyl)-2-N-isobutyl-6-N-(N'-benzyl-N'-piperonylaminocarbonyl)-2,6-diaminohexanol] | 1400 | 12.5 | – | – | –
8 | Cc1ccc(S(=O)(=O)N(CC(C)C)[C@@H](CCCCNC(=O)N[C@H]2CCc3ccccc32)C(=O)O)cc1 [Example 25, (15,1'S) Nα-isobutyl-Nα-(4-methylbenzenesulfonyl)-N∈-(indanyl-1'-aminocarbonyl)-S-lysine] | – | – | – | > 300 | –
9 | CC(C)CCN([C@H](CO)CCCCNC(=O)N(Cc1ccccc1)Cc1ccccc1)S(=O)(=O)c1ccc(N)cc1 [Example 86, (2S) 2-N-(4-aminobenzenesulfonyl)-2-N-(3-methylbutyl)-6-N-(N'-N'-dibenzylaminocarbonyl)-2,6-diaminohexanol] | – | – | 5.8 | – | –
10 | Cc1ccc(S(=O)(=O)N(CC(C)C)C(CCCCNC(=S)NC2CCc3ccccc32)C(=O)O)cc1 [Example 14, (1S,TRS) Nα-isobutyl-Nα-(4-methylbenzenesulfonyl)-N∈-(indanyl-1'-aminothiocarbonyl)-S-lysine] | – | – | – | > 300 | –
11 | COc1ccc(CNC(=O)NCCCC[C@@H](CO)N(CC(C)C)S(=O)(=O)c2ccc(N)cc2)cc1 [Example 77, (2S) 2-N-(4-aminobenzenesulfonyl)-2-N-isobutyl-6-N-(N'-4-methoxybenzylaminocarbonyl)-2,6-diaminohexanol] | – | – | – | > 300 | –
12 | CC(C)CCN([C@H](CO)CCCCNC(=O)N(Cc1ccc2c(c1)OCO2)CC(C)C)S(=O)(=O)c1ccc(N)cc1 [Example 104, (2S) 2-N-(4-aminobenzenesulfonyl)-2-N-(3-methylbutyl)-6-N-(N'-isobutyl-N'-piperonylaminocarbonyl)-2,6-diaminohexanol] | – | – | 77 | – | –
13 | CC(C)CCN([C@H](CO)CCCCNC(=O)N(Cc1ccc(F)cc1)Cc1ccc2c(c1)OCO2)S(=O)(=O)c1ccc(N)cc1 [Example 102, (2S) 2-N-(4-aminobenzenesulfonyl)-2-N-(3-methylbutyl)-6-N-[N'-(4-fluorobenzyl)-N'-piperonylaminocarbonyl]-2,6-diaminohexanol] | 1200 | – | 4.9 | – | CCIC50 ([2]; human, 6 days): 24.4 µM
14 | COc1cc(CNC(=O)NCCCC[C@@H](CO)N(CC(C)C)S(=O)(=O)c2ccc(N)cc2)cc(OC)c1 [Example 80, (2S) 2-N-(4-aminobenzenesulfonyl)-2-N-isobutyl-6-N-(N'-3,5-dimethoxybenzylaminocarbonyl)-2,6-diaminohexanol] | – | – | – | > 300 | –
15 | Cc1ccc(S(=O)(=O)N(CC(C)C)[C@@H](CCCCNC(=O)NCc2ccccn2)C(=O)O)cc1 [Example 3, Nα-isobutyl-Nα-(4-methylbenzenesulfonyl)-N∈-[N'-(2-picolyl)aminocarbonyl]-L-lysine] | – | – | – | > 300 | –
16 | Cc1ccc(S(=O)(=O)N(CC(C)C)[C@@H](CCCCNC(=O)NNC(=O)c2ccncc2)C(=O)O)cc1 [Example 11, Nα-isobutyl-Nα-(4-methylbenzenesulfonyl)-N∈-[N2-(pyridine-4-carbonyl)-hydrazino-N1-carbonyl]-L-lysine] | – | – | > 300 | – | –
17 | Cc1ccc(S(=O)(=O)N(CC(C)C)[C@@H](CCCCNC(=O)N[C@@H]2c3ccccc3C[C@@H]2O)C(=O)O)cc1 [Example 22, (1S,1'R,2'S) Nα-isobutyl-Nα-(4-methylbenzenesulfonyl)-N∈-(cis-2'-hydroxyindanyl-1'-aminocarbonyl)-S-lysine] | – | – | – | > 300 | –
18 | CC(C)CN([C@H](CO)CCCCNC(=O)N(Cc1ccccc1)Cc1ccc(F)cc1F)S(=O)(=O)c1ccc(N)cc1 [Example 93, (2S) 2-N-(4-aminobenzenesulfonyl)-2-N-isobutyl-6-N-[N'-benzyl-N'-(2,4-difluorobenzyl)aminocarbonyl]-2,6-diaminohexanol] | – | – | 12 | – | –
19 | CC(C)CCN([C@H](CO)CCCCNC(=O)N(Cc1ccncc1)Cc1ccc2c(c1)OCO2)S(=O)(=O)c1ccc(N)cc1 [Example 95, (2S) 2-N-(4-aminobenzenesulfonyl)-2-N-(3-methylbutyl)-6-N-[N'-(4-picolyl)-N'-piperonylaminocarbonyl]-2,6-diaminohexanol] | 550 | – | 7.1 | – | CCIC50 ([2]; human, 6 days): 28.8 µM
20 | COc1cc(CN(Cc2ccc3c(c2)OCO3)C(=S)NCCCC[C@@H](CO)N(CCC(C)C)S(=O)(=O)c2ccc(N)cc2)cc(OC)c1OC [Example 107, (2S) 2-N-(4-aminobenzenesulfonyl)-2-N-(3-methylbutyl)-6-N-[N'-(3,4,5-trimethoxybenzyl)-N'-piperonylaminothiocarbonyl]-2,6-diaminohexanol] | 680 | – | 4.9 | – | CCIC50 ([2]; human, 6 days): 10.7 µM
